As usually defined, the MIC is the smallest concentration in the dilution series that meets the test's criterion for growth inhibition. A word on the inhibition: it is the drop in the measured response relative to a control, in per cent. A high value points to a response far below the control. Broadly, the IC50 is the concentration that gives 50% inhibition. Higher therefore signals weaker potency.

The subject of one experiment is Staphylococcus aureus. Nature of the experiment: Antibacterial activity against Staphylococcus aureus ATCC 29213 assessed as inhibition of bacterial growth. In kind it is functional.
Experiment [1] is described as follows: Inhibition of MurC (unknown origin) at 100 uM relative to control.
Experiment [2] is described as follows: Inhibition of MurD (unknown origin) at 100 uM relative to control.
Experiment [3] is described as follows: Inhibition of MurE (unknown origin) at 100 uM relative to control.
The next experiment has as its system Escherichia coli. Nature of the experiment: Antibacterial activity against Escherichia coli ATCC 25922 assessed as inhibition of bacterial growth. The format is functional.
Experiment [4] is described as follows: Inhibition of MurF (Unknown origin) at 100 uM relative to control.
Experiment [5] is described as follows: Inhibition of MurD (unknown origin).
Experiment [6] in a line: Inhibition of MurE (unknown origin).
The nature of experiment [7]: Inhibition of MurC (unknown origin).
A short description of experiment [8]: Inhibition of MurF (unknown origin).

≈ marks a conversion by molar mass, not a printed value.

With `Cc1cc(Br)cc(C)c1/C=C/c1cncc(-c2nnn[nH]2)c1`, the MIC with Staphylococcus aureus is 250 µM (≈ 89.1 µg/mL); in the experiment on Escherichia coli, greater than 250 µM. Moreover, the inhibition in experiment [1] is 30%; in experiment [2], 46%; in [3], 38%; in [4] it was 32%. This compound displayed a half-inhibitory concentration (IC50) in [5] of 131 µM.

For `COC(=O)c1cccc(-c2cc(C)c(/C=C/c3cncc(-c4nnn[nH]4)c3)c(C)c2)c1`, the MIC with Staphylococcus aureus and with Escherichia coli was greater than 250 µM each time. Moreover, the inhibition amounted to 15% in [1], 16% in [2], 23% in experiment [3] and 16% in [4].

For `Cc1cc(N2CCCCC2=O)cc(C)c1/C=C/c1cncc(-c2nnn[nH]2)c1`, the minimal inhibitory concentration (MIC) with Staphylococcus aureus and with Escherichia coli was greater than 250 µM in each case. Moreover, the inhibition is 15% in experiment [1], 14% in [2], 30% in experiment [3] and 38% in experiment [4].

Regarding `Cc1cc(-c2ccncc2)cc(C)c1/C=C/c1cncc(-c2nnn[nH]2)c1`, the MIC in the experiment on Staphylococcus aureus and with Escherichia coli was greater than 250 µM each time. The inhibition came to 14% in experiment [1], 9% in experiment [2], 19% in [3] and 15% in experiment [4].

On to `Cc1cc(-c2ccco2)cc(C)c1/C=C/c1cncc(C2=NCCS2)c1`, for which the minimal inhibitory concentration (MIC) in the experiment with Staphylococcus aureus and with Escherichia coli was greater than 250 µM throughout. The inhibition in experiment [1] was determined as 56%; in [2], 70%; in experiment [3] it was 46%; in experiment [4] it was 58%. Besides, the IC50 in [6] was determined as 150 µM; in [7], 82 µM; in experiment [8], 71 µM; in [5], 85 µM.

As to `Cc1cc(-c2ccco2)cc(C)c1/C=C/c1cncc(C(=O)O)c1`, the MIC with Staphylococcus aureus and with Escherichia coli was greater than 250 µM in each case. The inhibition is 43% in experiment [1], 70% in experiment [2], 27% in experiment [3] and 47% in [4]. For the same compound, the IC50 in experiment [7] was 153 µM; in [8] it was 109 µM; in [5], 64 µM.

`Cc1cc(-c2cccc(CO)c2)cc(C)c1/C=C/c1cncc(-c2nnn[nH]2)c1`: the minimum inhibitory concentration (MIC) in the experiment on Staphylococcus aureus and with Escherichia coli was greater than 250 µM each time. In addition, the inhibition is 25% in experiment [1], 14% in experiment [2], 23% in experiment [3] and 24% in experiment [4].

Take `COc1ccc(-c2cc(C)c(/C=C/c3cncc(-c4nnn[nH]4)c3)c(C)c2)cc1`: the results for the minimum inhibitory concentration (MIC) in the experiment on Staphylococcus aureus and in the experiment with Escherichia coli were 250 µM (≈ 95.9 µg/mL) and greater than 250 µM, respectively. Further, the inhibition was found to be 30% in experiment [1], 30% in experiment [2], 37% in [3] and 25% in experiment [4].

For the compound `Cc1cc(-c2cccnc2)cc(C)c1/C=C/c1cncc(-c2nn[nH]n2)c1`, the minimum inhibitory concentration (MIC) with Staphylococcus aureus and in the experiment with Escherichia coli was greater than 250 µM throughout. Also, the inhibition was 10% in experiment [1], 10% in experiment [2], 4% in experiment [3] and 0% in [4].

For `Cc1cc(-c2ccco2)cc(C)c1/C=C/c1cccc(-c2nnn[nH]2)c1`, the MIC in the experiment with Staphylococcus aureus and in the experiment with Escherichia coli was greater than 250 µM throughout. In addition, the inhibition in experiment [1] is 5%; in [2], 64%; in experiment [3], 30%; in experiment [4] it was 21%. In experiment [5], this compound had an IC50 of 107 µM.

Regarding `Cc1cc(-c2ccco2)cc(C)c1/C=C/c1cncc(-c2nn[nH]n2)c1`, the minimum inhibitory concentration (MIC) in the experiment with Staphylococcus aureus and in the experiment on Escherichia coli was greater than 250 µM in each case. The inhibition in experiment [1] was 30%; in [2] it was 55%; in experiment [3], 51%; in [4], 74%. Besides, the results for the 50% inhibitory concentration (IC50) in experiment [6], in experiment [8] and in experiment [5] were 79 µM, 59 µM and 104 µM, respectively.

Take `COc1cccc(-c2cc(C)c(/C=C/c3cncc(-c4nnn[nH]4)c3)c(C)c2)c1`: the MIC in the experiment with Staphylococcus aureus and in the experiment on Escherichia coli was greater than 250 µM throughout. Further, the inhibition in [1] was found to be 15%; in experiment [2], 23%; in experiment [3] it was 21%; in experiment [4] it was 18%.

With `Cc1cc(-c2ccco2)cc(C)c1/C=C/c1cc(-c2nnn[nH]2)ccn1`, the minimal inhibitory concentration (MIC) with Staphylococcus aureus and in the experiment with Escherichia coli was greater than 250 µM throughout. Also, the inhibition amounted to 23% in experiment [1], 73% in experiment [2], 55% in [3] and 84% in experiment [4]. The IC50 in [6] is 97 µM; in experiment [8], 17 µM; in experiment [5], 56 µM.

Consider `Cc1cc(-c2ccco2)cc(C)c1/C=C/c1cncc(C(N)=O)c1`, for which the minimal inhibitory concentration (MIC) with Staphylococcus aureus and in the experiment with Escherichia coli was greater than 250 µM each time. Also, the inhibition turned out to be 20% in experiment [1], 40% in [2], 51% in experiment [3] and 76% in experiment [4]. Besides, the IC50 came to 156 µM in experiment [6], 31 µM in [8] and 168 µM in [5].

Turning to `COc1ccccc1-c1cc(C)c(/C=C/c2cncc(-c3nnn[nH]3)c2)c(C)c1`, the MIC in the experiment on Staphylococcus aureus was 125 µM (≈ 47.9 µg/mL); in the experiment on Escherichia coli, greater than 250 µM. Besides, the inhibition in experiment [1] came to 35%; in experiment [2], 42%; in [3], 33%; in experiment [4], 0%. The same compound had an IC50 in experiment [5] of 104 µM.

`Cc1cc(-c2ccoc2)cc(C)c1/C=C/c1cncc(-c2nnn[nH]2)c1`: the MIC in the experiment with Staphylococcus aureus and in the experiment with Escherichia coli was greater than 250 µM each time. Further, the inhibition is 16% in experiment [1], 22% in [2], 18% in experiment [3] and 12% in experiment [4].

For the compound `Cc1cc(-c2ccco2)cc(C)c1/C=C/c1cncc(C2=NCCN2)c1`, the MIC stood at 31 µM (≈ 10.6 µg/mL) with Staphylococcus aureus and 250 µM (≈ 85.9 µg/mL) in the experiment with Escherichia coli. The inhibition in [1] came out at 42%; in experiment [2], 47%; in [3] it was 10%; in experiment [4], 40%. Also, the half-maximal inhibitory concentration (IC50) was 151 µM in [7], 201 µM in [8] and 160 µM in experiment [5].

For `Cc1cc(N2CCCC2)cc(C)c1/C=C/c1cncc(-c2nnn[nH]2)c1`, the MIC with Staphylococcus aureus is 250 µM (≈ 86.6 µg/mL); in the experiment with Escherichia coli, greater than 250 µM. In addition, the inhibition in [1] amounted to 22%; in experiment [2] it was 1%; in experiment [3] it was 16%; in experiment [4], 29%.

Take `Cc1cc(-c2cccc(C(=O)O)c2)cc(C)c1/C=C/c1cncc(-c2nnn[nH]2)c1`: the minimal inhibitory concentration (MIC) in the experiment with Staphylococcus aureus and in the experiment with Escherichia coli was greater than 250 µM each time. The inhibition in experiment [1] was determined as 33%; in experiment [2], 26%; in [3] it was 39%; in experiment [4], 18%.

Turning to `Cc1cc(-c2ccco2)cc(C)c1/C=C/c1cncc(C2=NCCO2)c1`, the minimum inhibitory concentration (MIC) with Staphylococcus aureus was 125 µM (≈ 43.1 µg/mL); with Escherichia coli, greater than 250 µM. In addition, the inhibition in experiment [1] came out at 44%; in [2], 45%; in experiment [3] it was 32%; in [4] it was 44%. Moreover, the results for the half-inhibitory concentration (IC50) in [7], in experiment [8] and in experiment [5] were 153 µM, 144 µM and 126 µM, respectively.

Consider `Cc1cc(-c2ccco2)cc(C)c1/C=C/c1cncc(C#N)c1`, for which the MIC with Staphylococcus aureus and with Escherichia coli was greater than 250 µM throughout. In addition, the inhibition in [1] was 22%; in experiment [2], 27%; in [3], 35%; in experiment [4] it was 21%.

The record behind these values is ChEMBL document CHEMBL4813999, “Mur ligases inhibitors with azastilbene scaffold: Expanding the structure-activity relationship” (Bioorg Med Chem Lett, 2021).
